In ChEMBL document CHEMBL1201862, “PubChem BioAssay data set” (2004):
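Each compound was tested at five concentrations against cells in 96-well plates for 48 hours. GI50 is the concentration that inhibits growth by half.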 Active and inactive are the calls of the source. No stated cut-off is given here; in the data, active = GI50 up to about 1.1 µM and inactive = higher.

Tests used:
Assay in all cases: NCI anticancer screen, dose series, 48 h
HCC 2998 = system: HCC 2998
HCT-15 = system: HCT-15
786-0 = system: 786-0
SK-MEL-5 = system: SK-MEL-5
SK-MEL-2 = system: SK-MEL-2
NCI-H460 = system: NCI-H460
RPMI-8226 = system: RPMI-8226
HOP-92 = system: HOP-92
KM12 = system: KM12
CAKI-1 = system: CAKI-1
SNB-75 = system: SNB-75
SNB-19 = system: SNB-19
MOLT-4 = system: MOLT-4
SF-539 = system: SF-539
SK-MEL-28 = system: SK-MEL-28
SR = system: SR

Row | Structure (SMILES) | GI50 (HCC 2998) | GI50 (HCT-15) | GI50 (786-0) | GI50 (SK-MEL-5) | GI50 (SK-MEL-2) | GI50 (NCI-H460) | GI50 (RPMI-8226) | GI50 (HOP-92) | GI50 (KM12) | GI50 (CAKI-1) | GI50 (SNB-75) | GI50 (SNB-19) | GI50 (MOLT-4) | GI50 (SF-539) | GI50 (SK-MEL-28) | GI50 (SR)
1 | COC(=O)c1ccc(C(=O)OC)c2nc3cc(Cl)ccc3nc12 | > 100 µM (inactive) | > 100 µM | > 100 µM (inactive) | > 100 µM (inactive) | > 100 µM (inactive) | > 100 µM (inactive) | > 100 µM (inactive) | > 100 µM (inactive) | > 100 µM (inactive) | > 100 µM (inactive) | > 100 µM (inactive) | > 100 µM (inactive) | > 100 µM (inactive) | > 100 µM (inactive) | > 100 µM (inactive) | –
2 | CNS(=O)(=O)NNS(=O)(=O)c1cccc([N+](=O)[O-])c1 | > 100 µM (inactive) | > 100 µM | > 100 µM (inactive) | > 100 µM (inactive) | > 100 µM (inactive) | > 100 µM (inactive) | > 100 µM (inactive) | – | > 100 µM (inactive) | > 100 µM (inactive) | > 100 µM (inactive) | > 100 µM (inactive) | > 100 µM (inactive) | > 100 µM (inactive) | – | > 100 µM (inactive)
3 | CCOC(=O)C1=C(C)N(NC(=O)Nc2ccccc2)C2(N)N(NC(=O)Nc3ccccc3)C(C)=C(C(=O)OCC)C12C#N (stereo not given) | 19.2 µM (inactive) | 19.4 µM | 18 µM (inactive) | – | 16.1 µM (inactive) | 17.8 µM (inactive) | 22 µM (inactive) | 20.2 µM (inactive) | – | 19.2 µM (inactive) | 18.9 µM (inactive) | – | 21.6 µM (inactive) | – | 16.9 µM (inactive) | –
4 | Cc1nc(O)nc(CC(O)(c2ccccc2)c2ccccc2)c1-c1ccccc1 | > 100 µM (inactive) | > 100 µM | > 100 µM (inactive) | > 100 µM (inactive) | > 100 µM (inactive) | > 100 µM (inactive) | – | 55.8 µM (inactive) | > 100 µM (inactive) | > 100 µM (inactive) | 52.6 µM (inactive) | > 100 µM (inactive) | > 100 µM (inactive) | > 100 µM (inactive) | > 100 µM (inactive) | –
5 | Cn1c2cc([N+](=O)[O-])ccc2c(=O)c2c(O)cc3c(c21)C=CC(C)(C)O3 | > 100 µM (inactive) | > 100 µM | 44.3 µM (inactive) | > 100 µM (inactive) | 40.7 µM (inactive) | > 100 µM (inactive) | > 100 µM (inactive) | – | > 100 µM (inactive) | 60.5 µM (inactive) | 10.1 µM (inactive) | 31.6 µM (inactive) | > 100 µM (inactive) | 14.8 µM (inactive) | > 100 µM (inactive) | –
6 | COc1ccc(/C=N/NC(=O)NCCNCCO)cc1 | – | > 100 µM | > 100 µM (inactive) | > 100 µM (inactive) | > 100 µM (inactive) | > 100 µM (inactive) | > 100 µM (inactive) | > 100 µM (inactive) | > 100 µM (inactive) | > 100 µM (inactive) | > 100 µM (inactive) | – | > 100 µM (inactive) | > 100 µM (inactive) | > 100 µM (inactive) | > 100 µM (inactive)
7 | CCCC/C=C1\CCC(CN2CCCC2)C1=O (stereo not given) | 18.7 µM (inactive) | 3.13 µM | 1.83 µM (inactive) | 17.3 µM (inactive) | 16 µM (inactive) | 19.9 µM (inactive) | – | 12.1 µM (inactive) | 2.61 µM (inactive) | > 10 µM (inactive) | 18.4 µM (inactive) | 21.8 µM (inactive) | 3.57 µM (inactive) | 16.1 µM (inactive) | 15.7 µM (inactive) | 4.36 µM (inactive)
8 | Cc1ccc(/C=C/C(=O)c2sc(-c3cccnc3)nc2C)cc1 | > 100 µM (inactive) | > 100 µM | > 100 µM (inactive) | > 100 µM (inactive) | > 100 µM (inactive) | > 100 µM (inactive) | > 100 µM (inactive) | > 100 µM (inactive) | > 100 µM (inactive) | > 100 µM (inactive) | – | – | > 100 µM (inactive) | > 100 µM (inactive) | – | –
9 | NCCNc1cccc2ccccc12 | > 100 µM (inactive) | > 100 µM | > 100 µM (inactive) | – | > 100 µM (inactive) | > 100 µM (inactive) | > 100 µM (inactive) | > 100 µM (inactive) | > 100 µM (inactive) | > 100 µM (inactive) | – | > 100 µM (inactive) | – | > 100 µM (inactive) | – | > 100 µM (inactive)
10 | Cc1nc2c(n1CC(C)(C)C)C(=O)c1ccccc1C2=O | > 100 µM (inactive) | > 100 µM | > 100 µM (inactive) | 43.1 µM (inactive) | > 100 µM (inactive) | 58.6 µM (inactive) | – | 16.7 µM (inactive) | > 100 µM (inactive) | – | > 100 µM (inactive) | > 100 µM (inactive) | 91.2 µM (inactive) | > 100 µM (inactive) | > 100 µM (inactive) | 97.7 µM (inactive)
